Values quoted from earlier work in article PMC5810560 (Chemico-biological interactions, 2017).

Conditions: rats, brain homogenates, 50 μmol IM exposure; ref Petroianu et al., 2007; cited from earlier work

In the case of `C[n+]1ccccc1/C=N/O` [2-PAM, pralidoxime chloride], the brain/plasma ratio is given as 0.056.
